Experimental data published in patent publication US9481670B2, “Triazine compounds” (Sphaera Pharma PTE. Ltd., priority 2011, dated 2016).
Read-outs that look alike come from different tables or passages of the source.

Experiments:
[1] = Pharmacokinetic study, oral dosing, plasma concentration by LC-MS/MS; format: in vivo; details: female swiss mice, fasted overnight, oral 3 mg/kg in PEG 400, plasma
Protocol: For pharmacokinetic study female swiss mice were used. The swiss mice weighing 25-30 g, fasted overnight, were orally dosed at 3 mg/kg body weight of compound in PEG 400. Blood samples (40 μl) were collected from each mouse by retro-orbital bleeding at 0, 0.16, 0.5, 1, 2, 4, 6 and 8 h after dosing into the tubes containing heparin as an anticoagulant. The samples were stored in ice and within 1 h after collection samples were centrifuged at 10000 RPM at 4° C. Plasma was collected and stored at −80° C. until analyis. The concentration of compounds in plasma were determined by liquid chromatography-tandem mass spectrometry (LC-MS/MS).
The protein precipitation method was used to extract the compounds. Acetonitrile was added to plasma, vortexed and centrifuged at 10000 RPM at 4° C. The supenatent was collected and injected onto the column. A CTC HTC PAL auto sampler (LEAP Technologies) linked to a Shimadzu SCL-10A VP HTC controller with LC-10AD pumps (Shimadzu), coupled with a Sciex API 3000 triple quadrupole mass spectrometer were used for the LC-MS/MS analysis. Some compounds as per the present invention are represented in the table below, were tested and their PK values are reported in Table 2.

human tumor xenografts = details: mouse, in vivo; cited from earlier work
PI3K alpha = target: T1, PI3K alpha (Homo sapiens, UniProt P42336); assay: P110 Alpha TR-FRET Assay (PI3K alpha kinase assay, HTRF Transcreener ADP Assay); format: biochemical; details: PI3K (WT)
T1 construct: purchased Millipore Upstate
T1 sequence (P42336 whole entry): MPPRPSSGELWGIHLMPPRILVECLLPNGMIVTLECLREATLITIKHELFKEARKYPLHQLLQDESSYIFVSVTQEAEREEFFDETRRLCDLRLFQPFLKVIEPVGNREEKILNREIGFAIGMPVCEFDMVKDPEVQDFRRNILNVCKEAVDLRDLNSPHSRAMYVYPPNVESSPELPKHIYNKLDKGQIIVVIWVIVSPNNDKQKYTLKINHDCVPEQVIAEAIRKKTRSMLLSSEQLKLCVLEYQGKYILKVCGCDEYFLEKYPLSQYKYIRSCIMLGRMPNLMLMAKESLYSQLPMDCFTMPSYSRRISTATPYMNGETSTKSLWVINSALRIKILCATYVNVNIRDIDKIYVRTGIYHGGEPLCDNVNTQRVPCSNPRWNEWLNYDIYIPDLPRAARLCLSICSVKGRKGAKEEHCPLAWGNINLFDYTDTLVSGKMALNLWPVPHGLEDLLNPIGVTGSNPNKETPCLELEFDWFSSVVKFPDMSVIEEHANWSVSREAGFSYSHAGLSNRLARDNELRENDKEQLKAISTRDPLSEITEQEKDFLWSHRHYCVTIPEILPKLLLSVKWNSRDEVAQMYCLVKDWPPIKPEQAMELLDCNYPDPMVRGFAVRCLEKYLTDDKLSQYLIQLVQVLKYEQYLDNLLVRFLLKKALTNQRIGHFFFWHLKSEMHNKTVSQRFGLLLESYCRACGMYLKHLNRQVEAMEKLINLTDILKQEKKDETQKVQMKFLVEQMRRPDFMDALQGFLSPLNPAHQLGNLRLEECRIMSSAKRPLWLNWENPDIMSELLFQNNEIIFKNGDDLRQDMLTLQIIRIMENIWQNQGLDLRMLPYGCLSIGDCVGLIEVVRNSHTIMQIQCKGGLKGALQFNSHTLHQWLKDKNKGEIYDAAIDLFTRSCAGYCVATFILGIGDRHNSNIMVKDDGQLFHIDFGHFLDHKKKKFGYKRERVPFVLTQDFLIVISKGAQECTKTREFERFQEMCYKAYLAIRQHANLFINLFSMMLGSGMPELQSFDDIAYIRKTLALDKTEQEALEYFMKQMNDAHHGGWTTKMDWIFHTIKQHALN
T1 sequence (P27986 whole entry partner): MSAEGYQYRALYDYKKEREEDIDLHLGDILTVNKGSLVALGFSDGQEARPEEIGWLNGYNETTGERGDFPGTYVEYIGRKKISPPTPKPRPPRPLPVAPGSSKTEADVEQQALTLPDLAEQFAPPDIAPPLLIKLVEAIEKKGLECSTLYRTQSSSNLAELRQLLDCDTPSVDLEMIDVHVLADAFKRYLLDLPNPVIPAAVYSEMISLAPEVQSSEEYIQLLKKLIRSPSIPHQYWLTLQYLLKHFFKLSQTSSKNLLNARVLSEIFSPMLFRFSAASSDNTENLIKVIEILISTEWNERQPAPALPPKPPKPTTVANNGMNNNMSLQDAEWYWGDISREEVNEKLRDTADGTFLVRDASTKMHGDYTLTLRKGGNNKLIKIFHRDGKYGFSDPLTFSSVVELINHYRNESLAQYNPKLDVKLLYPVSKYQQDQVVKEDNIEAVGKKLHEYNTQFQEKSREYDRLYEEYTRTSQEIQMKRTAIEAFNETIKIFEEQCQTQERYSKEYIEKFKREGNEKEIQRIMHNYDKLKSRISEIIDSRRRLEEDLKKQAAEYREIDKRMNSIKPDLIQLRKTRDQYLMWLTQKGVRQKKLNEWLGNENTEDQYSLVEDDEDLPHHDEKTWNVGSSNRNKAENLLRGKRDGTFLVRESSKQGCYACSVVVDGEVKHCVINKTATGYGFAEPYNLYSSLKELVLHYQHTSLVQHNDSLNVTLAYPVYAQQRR
Method in brief: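 Enzyme (50 ng) and compound were preincubated 20 min in HEPES pH 7.5 buffer containing MgCl2, DTT and vanadate before 10 μM ATP plus 5 μM PIP2 substrate was added for 20 min. ADP produced was quantified by TR-FRET (ADP-d2, anti-ADP cryptate, 1 h).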

| Cmax ([1]; mouse) [nM] | AUC ([1]; mouse, read-out: AUC) [µM·h] | half-life ([1]; mouse, read-out: Elimination t1/2 (converted)) [min] | Tmax ([1]; mouse, read-out: Tmax) [h] | IC50 (PI3K alpha) [µM] | AUC [1] [nM-hr] | Cmax [1] [nM] | Elimination t1/2 [1] [h] | Tmax [1] [h] | SMILES | tolerability (human tumor xenografts) |
| --- | --- | --- | --- | --- | --- | --- | --- | --- | --- | --- |
| 1240 | 5.25 | 292 | 1 | – | – | – | – | – | CNC(=O)c1ccc(Oc2nc(-c3cccc4[nH]ncc34)nc(N3CCOCC3)n2)cc1 [Compound 1113, 4-14-{[4-1-(1H-indazol-4-yl)-6-5-(morpholin-4-yl)-1,3,5-triazin-2-yl]oxy}-N-methylbenzamide] | – |
| – | – | – | – | – | – | – | – | – | O=c1cc(N2CCOCC2)oc2c(-c3ccccc3)cccc12 [LY294002] | well-tolerated |
| – | – | – | – | < 5 | 1618 | 535 | 3.15 | 0.83 | CN(C)C(=O)N1CCC(Oc2nc(-c3cccc4[nH]ncc34)nc(N3CCOCC3)n2)CC1 [Compound 1126, 4-14-{[4-1-(1H-indazol-4-yl)-6-5-(morpholin-4-yl)-1,3,5-triazin-2-yl]oxy}-N,N-dimethylpiperidine-1-carboxamide] | – |
| – | – | – | – | < 5 | 5849 | 1660 | 4.34 | 1.33 | CN(C)C(=O)[C@H]1CC[C@H](Oc2nc(-c3cccc4[nH]ncc34)nc(N3CCOCC3)n2)CC1 [Compound 1144, (1r,4r)-4-21-{[4-1-(1H-indazol-4-yl)-6-5-(morpholin-4-yl)-1,3,5-triazin-2-yl]oxy}-N,N-dimethylcyclohexane-1-carboxamide] | – |
